From ChEMBL document CHEMBL5233262, “Anti-inflammatory activity of naturally occuring diarylheptanoids - A review” (Bioorg Med Chem, 2021)
Values after ≈ are worked out from the molar mass of the structure shown.

Key:
[1] = test system: RAW264.7; test: Antiinflammatory activity in mouse RAW264.7 cells assessed as inhibition of LPS-induced iNOS expression at 25 uM; assay type: functional
[2] = test system: RAW264.7; test: Antiinflammatory activity in mouse RAW264.7 cells assessed as inhibition of LPS-induced NO production incubated for 20 hrs by Griess reagent based microplate reader analysis; assay type: functional, cell-based; conditions: RAW264.7, 20 h
[3] = test system: RAW264.7; test: Antiinflammatory activity in mouse RAW264.7 cells assessed as inhibition of LPS-induced NO production for 24 hrs by colorimetric analysis; assay type: functional, cell-based; conditions: RAW264.7, 24 h
[4] = Antiinflammatory activity in human HEK001 cells assessed as inhibition of LPS induced IL-1beta production at […] incubated for 24 hrs by ELISA; assay type: functional; conditions: dose 7.5 µM
[5] = target: Nuclear factor NF-kappa-B complex (Homo sapiens) (UniProt Q00653+P19838+Q04206); test: Inhibition of human NF-kappaB p65 binding to DNA in LPS-stimulated human keratinocytes at […] for 30 mins by ELISA; assay type: cell-based; conditions: Keratinocyte, dose 7.5 µM
Nuclear factor NF-kappa-B complex (Homo sapiens), sequence (P19838 whole entry, looked up): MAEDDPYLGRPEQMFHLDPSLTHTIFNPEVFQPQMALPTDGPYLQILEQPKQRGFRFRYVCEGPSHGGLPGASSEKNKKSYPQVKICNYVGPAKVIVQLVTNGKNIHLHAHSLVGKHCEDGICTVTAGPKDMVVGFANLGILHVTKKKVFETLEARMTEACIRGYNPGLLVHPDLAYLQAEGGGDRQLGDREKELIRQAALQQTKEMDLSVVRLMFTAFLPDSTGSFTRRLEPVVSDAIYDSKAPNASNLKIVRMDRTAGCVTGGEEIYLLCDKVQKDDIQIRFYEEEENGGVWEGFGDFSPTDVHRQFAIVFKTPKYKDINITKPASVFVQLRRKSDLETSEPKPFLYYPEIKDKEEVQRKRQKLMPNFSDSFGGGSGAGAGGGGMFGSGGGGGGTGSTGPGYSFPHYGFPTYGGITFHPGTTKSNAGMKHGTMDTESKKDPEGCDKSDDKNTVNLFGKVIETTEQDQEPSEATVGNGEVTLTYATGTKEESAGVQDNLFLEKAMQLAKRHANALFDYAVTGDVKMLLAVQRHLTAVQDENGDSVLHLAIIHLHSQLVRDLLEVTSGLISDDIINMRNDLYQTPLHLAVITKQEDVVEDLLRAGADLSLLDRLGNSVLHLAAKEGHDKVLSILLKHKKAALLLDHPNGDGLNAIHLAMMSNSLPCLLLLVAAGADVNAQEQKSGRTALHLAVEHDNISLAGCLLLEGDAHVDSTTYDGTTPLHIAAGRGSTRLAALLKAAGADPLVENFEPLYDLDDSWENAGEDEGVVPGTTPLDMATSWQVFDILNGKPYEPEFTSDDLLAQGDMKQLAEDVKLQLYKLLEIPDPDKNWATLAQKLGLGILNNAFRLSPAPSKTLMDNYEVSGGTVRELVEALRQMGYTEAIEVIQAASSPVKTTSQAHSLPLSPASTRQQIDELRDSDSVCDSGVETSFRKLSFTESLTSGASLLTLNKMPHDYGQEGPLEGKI
Nuclear factor NF-kappa-B complex (Homo sapiens), sequence (Q00653 whole entry, looked up): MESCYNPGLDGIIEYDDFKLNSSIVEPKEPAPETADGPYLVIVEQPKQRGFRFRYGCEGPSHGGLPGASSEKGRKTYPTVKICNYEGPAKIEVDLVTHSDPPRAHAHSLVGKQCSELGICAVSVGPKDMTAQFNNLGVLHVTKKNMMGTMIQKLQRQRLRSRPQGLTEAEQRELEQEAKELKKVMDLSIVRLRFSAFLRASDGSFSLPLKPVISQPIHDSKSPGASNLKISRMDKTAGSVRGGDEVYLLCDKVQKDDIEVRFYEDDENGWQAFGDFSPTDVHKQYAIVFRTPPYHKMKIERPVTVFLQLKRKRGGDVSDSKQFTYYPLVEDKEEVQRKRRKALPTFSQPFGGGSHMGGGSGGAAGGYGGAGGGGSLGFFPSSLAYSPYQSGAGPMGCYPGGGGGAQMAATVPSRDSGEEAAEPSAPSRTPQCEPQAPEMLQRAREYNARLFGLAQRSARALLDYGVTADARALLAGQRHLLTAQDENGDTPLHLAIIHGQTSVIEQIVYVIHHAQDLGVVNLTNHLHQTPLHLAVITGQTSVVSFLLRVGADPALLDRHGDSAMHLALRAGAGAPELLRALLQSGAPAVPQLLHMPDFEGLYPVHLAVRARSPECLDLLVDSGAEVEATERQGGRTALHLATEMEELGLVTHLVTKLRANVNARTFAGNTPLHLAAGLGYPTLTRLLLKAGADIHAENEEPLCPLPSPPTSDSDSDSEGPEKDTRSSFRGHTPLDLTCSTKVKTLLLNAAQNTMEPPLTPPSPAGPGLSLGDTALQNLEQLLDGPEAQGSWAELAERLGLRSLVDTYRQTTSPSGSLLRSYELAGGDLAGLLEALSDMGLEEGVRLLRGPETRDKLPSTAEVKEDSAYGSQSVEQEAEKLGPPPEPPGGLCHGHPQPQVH
Nuclear factor NF-kappa-B complex (Homo sapiens), sequence (Q04206 whole entry, looked up): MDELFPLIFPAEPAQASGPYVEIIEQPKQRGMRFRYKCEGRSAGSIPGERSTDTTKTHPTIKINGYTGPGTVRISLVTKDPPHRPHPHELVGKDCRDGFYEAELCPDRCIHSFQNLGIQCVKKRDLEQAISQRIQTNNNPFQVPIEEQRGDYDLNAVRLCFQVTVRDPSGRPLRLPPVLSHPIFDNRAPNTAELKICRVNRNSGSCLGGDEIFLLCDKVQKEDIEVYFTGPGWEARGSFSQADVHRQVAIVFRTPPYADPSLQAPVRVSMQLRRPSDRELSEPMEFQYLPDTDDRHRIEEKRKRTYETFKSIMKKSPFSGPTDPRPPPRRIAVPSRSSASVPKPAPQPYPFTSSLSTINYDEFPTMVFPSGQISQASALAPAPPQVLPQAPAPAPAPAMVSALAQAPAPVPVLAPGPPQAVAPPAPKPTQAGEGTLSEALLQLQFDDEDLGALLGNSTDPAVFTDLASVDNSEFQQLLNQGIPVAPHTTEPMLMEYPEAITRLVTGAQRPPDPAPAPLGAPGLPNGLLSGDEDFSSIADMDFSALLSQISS

[6] = test system: Mus musculus; test: Antiinflammatory activity in Dermatophagoides farina induced atopic dermatitis like skin lesions NC/Nga mouse model assessed as inhibition of IL-5 level at 1 %,ip twice a week for 4 weeks by ELISA; assay type: functional
[7] = test system: Mus musculus; test: Antiinflammatory activity in Dermatophagoides farina induced atopic dermatitis like skin lesions NC/Nga mouse model assessed as inhibition of iNOS expression level at 0.1 %,ip twice a week for 4 weeks by RT-PCR analysis; assay type: functional
[8] = Antiinflammatory activity in mouse BMDM cells assessed as inhibition of LPS induced IL-1beta secretion at 5 uM; assay type: functional
[9] = test system: Mus musculus; test: Antiinflammatory activity in Dermatophagoides farina induced atopic dermatitis like skin lesions NC/Nga mouse model assessed as inhibition of IL-5 level at 0.1 %,ip twice a week for 4 weeks by ELISA; assay type: functional
[10] = Antiinflammatory activity in human HEK001 cells assessed as inhibition of TNF-alpha induced NO production incubated for 24 hrs at […] by Griess reagent based analysis; assay type: functional; conditions: dose 7.5 µM
[11] = Antiinflammatory activity in human HEK001 cells assessed as inhibition of LPS induced CCL17 production at […] incubated for 24 hrs by ELISA; assay type: functional; conditions: dose 7.5 µM
[12] = test system: RAW264.7; test: Antiinflammatory activity in mouse RAW264.7 cells assessed as inhibition of IFN-gamma and LPS-induced NO production incubated for 24 hrs by Griess assay; assay type: functional, cell-based; conditions: RAW264.7, 24 h
[13] = Antioxidant activity assessed as nitroblue tetrazolium superoxide radical scavenging activity by spectrophotometric analysis; assay type: functional
[14] = Antiinflammatory activity in human Keratinocytes assessed as inhibition of LPS induced ERK production at […] incubated for 24 hrs by ELISA; assay type: functional; conditions: Keratinocyte, dose 7.5 µM
[15] = test system: RAW264.7; test: Antiinflammatory activity in mouse RAW264.7 cells assessed as inhibition of LPS-induced NO production incubated for 24 hrs by Griess reagent based analysis; assay type: functional, cell-based; conditions: RAW264.7, 24 h
[16] = test system: RAW264.7; test: Antiinflammatory activity in mouse RAW264.7 cells assessed as inhibition of LPS-induced NO production preincubated for 0.5 hrs followed by LPS stimulation and measured after 24 hrs by Griess reagent based analysis; assay type: functional, cell-based
[17] = test system: Mus musculus; test: Antiinflammatory activity in Dermatophagoides farina induced atopic dermatitis like skin lesions NC/Nga mouse model assessed as inhibition of iNOS expression level at 1 %,ip twice a week for 4 weeks by RT-PCR analysis; assay type: functional
[18] = test system: Mus musculus; test: Antiinflammatory activity in Dermatophagoides farina induced atopic dermatitis like skin lesions NC/Nga mouse model assessed as inhibition of IL-4 level at 0.1 %,ip twice a week for 4 weeks by ELISA; assay type: functional
[19] = test system: Mus musculus; test: Antiinflammatory activity in Dermatophagoides farina induced atopic dermatitis like skin lesions NC/Nga mouse model assessed as inhibition of IL-4 level at 1 %,ip twice a week for 4 weeks by ELISA; assay type: functional
[20] = Antiinflammatory activity in human HEK001 cells assessed as inhibition of TNF-alpha induced CCL7 production at […] incubated for 24 hrs by ELISA; assay type: functional; conditions: dose 7.5 µM
[21] = Antioxidant activity assessed as nitroblue tetrazolium superoxide radical scavenging activity incubated for 10 mins by spectrophotometric analysis; assay type: functional
[22] = Cytotoxicity against mouse RAW264.7 cells assessed as reduction in cell viability by MTT assay; assay type: toxicity, cell-based
[23] = test system: RAW264.7; test: Antiinflammatory activity in mouse RAW264.7 cells assessed as inhibition of LPS-induced NF-kappaB activation incubated for 24 hrs by SEAP microplate reader analysis; assay type: functional, cell-based; conditions: RAW264.7, 24 h
[24] = Antiinflammatory activity in human HEK001 cells assessed as inhibition of LPS induced IL-8 production at […] incubated for 24 hrs by ELISA; assay type: functional; conditions: dose 7.5 µM
[25] = test system: RAW264.7; test: Antiinflammatory activity in mouse RAW264.7 cells assessed as inhibition of LPS-induced NO production preincubated for 1 hrs followed by LPS stimulation and measured after 24 hrs by Griess reagent based analysis; assay type: functional, cell-based
[26] = test system: Mus musculus; test: Antiinflammatory activity in Dermatophagoides farina induced atopic dermatitis like skin lesions NC/Nga mouse model assessed as inhibition of COX-2 expression level at 1 %,ip twice a week for 4 weeks by RT-PCR analysis; assay type: functional
[27] = test system: RAW264.7; test: Antiinflammatory activity against mouse RAW264.7 cells assessed as inhibition of IFN-gamma and LPS-induced COX2 production preincubated for 2 hrs followed by IFN-gamma and LPS stimulation and measured after 16 hrs by spectrophotometric analysis; assay type: functional, cell-based
[28] = test system: RAW264.7; test: Antiinflammatory activity in mouse RAW264.7 cells assessed as inhibition of LPS-induced NO production incubated for 20 hrs by Griess method; assay type: functional, cell-based; conditions: RAW264.7, 20 h
[29] = Antioxidant activity assessed as DPPH radical scavenging activity incubated for 30 mins by spectrophotometric analysis; assay type: functional
[30] = test system: RAW264.7; test: Antiinflammatory activity in mouse RAW264.7 cells assessed as inhibition of LPS-induced TNFalpha production preincubated for 1 hr followed by LPS stimulation and measured after 18 hrs by immunoassay; assay type: functional, cell-based
[31] = Antiinflammatory activity in human HEK001 cells assessed as inhibition of TNF-alpha induced PGE2 production at […] incubated for 24 hrs by ELISA; assay type: functional; conditions: dose 7.5 µM
[32] = Antiinflammatory activity in human Keratinocytes assessed as inhibition of LPS induced CCL17 production at […] incubated for 24 hrs by ELISA; assay type: functional; conditions: Keratinocyte, dose 7.5 µM
[33] = test system: RAW264.7; test: Antiinflammatory activity in mouse RAW264.7 cells assessed as inhibition of LPS-induced NO production incubated for 24 hrs by Griess method; assay type: functional, cell-based; conditions: RAW264.7, 24 h
[34] = test system: Mus musculus; test: Antiinflammatory activity in Dermatophagoides farina induced atopic dermatitis like skin lesions NC/Nga mouse model assessed as inhibition of COX-2 expression level at 0.1 %,ip twice a week for 4 weeks by RT-PCR analysis; assay type: functional
[35] = Antiinflammatory activity in human Keratinocytes assessed as inhibition of LPS induced IL-1beta production at […] incubated for 24 hrs by ELISA; assay type: functional; conditions: Keratinocyte, dose 7.5 µM
[36] = Antiinflammatory activity in human HEK001 cells assessed as inhibition of TNF-alpha induced IL-8 production at […] incubated for 24 hrs by ELISA; assay type: functional; conditions: dose 7.5 µM
[37] = test system: U-937; test: Antiinflammatory activity in PMA-stimulated human U-937 cells assessed as inhibition of TNFalpha secretion at 1 ug/ml by ELISA; assay type: functional
[38] = test system: U-937; test: Antiinflammatory activity in PMA-stimulated human U-937 cells assessed as inhibition of IL-1beta secretion at 1 ug/ml by ELISA; assay type: functional
[39] = test system: U-937; test: Antiinflammatory activity in PMA-stimulated human U-937 cells assessed as inhibition of IL-1beta protein expression at 1 ug/ml by western blot analysis; assay type: functional

With `COc1cc(CCC(O)CC(O)CCc2ccc(O)c(O)c2)ccc1O` (centres undefined) as the compound, how does the inhibition at 25 µM [1] read?
The inhibition at 25 µM was 32%.

And the IC50 [2]?
The IC50 was 22.8 µM.

With `Oc1ccc(CCC(O)/C=C/C=C/c2ccccc2)cc1` (centres undefined) as the compound, how does the IC50 [3] read?
The IC50 was 0.66 µM.

With `O=C(/C=C/CCc1ccc(O)c(O)c1)CCc1ccc(O)c(O)c1` [DEHYDROHIRSUTANONOL] as the compound, how does the inhibition at […] [4] read?
The inhibition at […] was 39%.

What about the inhibition [5] of the same compound?
Its inhibition is 29.5%.

What about the “inhibition (INH)” value [6] of the same compound?
The value was 74%.

And the “inhibition (INH)” value [7]?
Its value is 61%.

And the inhibition at 5 µM [8]?
Its inhibition at 5 µM is 73.4%.

What about the “inhibition (INH)” value [9] of the same compound?
The value was 37%.

What about the inhibition at […] [10] of the same compound?
Its inhibition at […] is 37%.

What about the inhibition at […] [11] of the same compound?
The inhibition at […] was 51%.

What about the IC50 [12] of the same compound?
Its IC50 is 27.2 µg/mL (≈ 82.8 µM).

What about the IC50 [13] of the same compound?
Its IC50 is 17.6 µM.

And the inhibition at […] [14]?
The inhibition at […] was 37%.

And the IC50 [15]?
The IC50 was over 100 µM.

And the IC50 [16]?
The IC50 was 5 µM.

What about the “inhibition (INH)” value [17] of the same compound?
Its value is 73%.

What about the “inhibition (INH)” value [18] of the same compound?
The value was 51%.

What about the “inhibition (INH)” value [19] of the same compound?
Its value is 60%.

What about the inhibition at […] [20] of the same compound?
The inhibition at […] was 43%.

What about the IC50 [21] of the same compound?
The IC50 was 16.8 µM.

What about the IC50 [22] of the same compound?
Its IC50 is 39 µM.

What about the IC50 [23] of the same compound?
Its IC50 is over 100 µM.

And the inhibition at […] [24]?
Its inhibition at […] is 40%.

And the IC50 [25]?
Its IC50 is 5.8 µM.

And the “inhibition (INH)” value [26]?
The value was 62%.

What about the IC50 [27] of the same compound?
The IC50 was 25 µg/mL (≈ 76.1 µM).

And the IC50 [28]?
Its IC50 is 0.8 µM.

What about the IC50 [29] of the same compound?
The IC50 was 13.4 µM.

And the IC50 [30]?
The IC50 was over 100 µM.

And the inhibition at […] [31]?
Its inhibition at […] is 46%.

And the inhibition at […] [32]?
Its inhibition at […] is 49%.

What about the IC50 [33] of the same compound?
The IC50 was 14.1 µM.

And the “inhibition (INH)” value [34]?
The value was 57%.

What about the inhibition at […] [35] of the same compound?
Its inhibition at […] is 39%.

And the inhibition at […] [36]?
The inhibition at […] was 33%.

What does the source list for `Oc1ccc(CCC(O)CC/C=C/c2ccccc2)cc1O` (centres undefined)?
inhibition at 1 µg/mL [37]: 44%; inhibition at 1 µg/mL [38]: 30%; inhibition at 1 µg/mL [39]: 64%
